Results reported in ChEMBL document CHEMBL1201862, “PubChem BioAssay data set” (2004).
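96-well plates; 48 h exposure; 5 concentrations. Endpoints by linear interpolation between flanking doses. Not reached: highest tested concentration assigned. Abbreviation: GI50, concentration required for 50% inhibition of growth.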 Active and inactive are the calls of the source. Rule as the data show it: active = GI50 up to about 1.1 µM and inactive = higher.

What was measured:
Test in all cases: DTP human tumour cell line panel, 48 h
RXF 631 = tested on: RXF 631
M19-MEL = tested on: M19-MEL
DLD-1 = tested on: DLD-1
DMS-114 = tested on: DMS-114
HOP-18 = tested on: HOP-18
DMS-273 = tested on: DMS-273
BT-549 = tested on: BT-549
Hs-578T = tested on: Hs-578T
MDA-N = tested on: MDA-N

Measured: GI50

CC(=O)c1ccc(OCC(O)CO)cc1 (configuration not stated)
inactive: RXF 631 > 100 µM | M19-MEL > 100 µM | DLD-1 45.8 µM | DMS-114 47 µM | HOP-18 > 100 µM | DMS-273 > 100 µM

Nc1ccc(N)c2c1C(=O)c1ccccc1C2=O
inactive: RXF 631 20.4 µM | M19-MEL 95.5 µM | DLD-1 5.83 µM | DMS-114 32.7 µM | HOP-18 22 µM | DMS-273 16 µM

CCOc1ccccc1NC(=O)CCc1nnc(S)[nH]1
inactive: RXF 631 > 100 µM | M19-MEL > 100 µM | DLD-1 > 100 µM | DMS-114 59.7 µM | HOP-18 > 100 µM

Nc1ncnc2c1ncn2C1C=C(CO)C(O)C1O (configuration not stated)
inactive: RXF 631 12.6 µM | BT-549 1.99 µM | M19-MEL 40.9 µM | DLD-1 5.6 µM | DMS-114 1.99 µM | HOP-18 24.3 µM | DMS-273 2.64 µM | Hs-578T 83.6 µM | MDA-N 3.37 µM

CCCCCCCCOCC(O)COC(=O)CCCCCCC (configuration not stated)
inactive: RXF 631 > 100 µM | M19-MEL 70.8 µM | DLD-1 > 100 µM | DMS-114 > 100 µM | HOP-18 > 100 µM | DMS-273 44.6 µM

Cc1cc(O)c(C(=O)CC2(O)C(=O)Nc3c(Cl)cc(Cl)cc32)c(=O)o1 (configuration not stated)
inactive: RXF 631 > 100 µM | M19-MEL 46.8 µM | DLD-1 > 100 µM | HOP-18 > 100 µM | DMS-273 41.7 µM

NS(=O)(=O)c1ccc(NC(=O)C2C(=O)C(=O)N(c3ccc(S(N)(=O)=O)cc3)C2=O)cc1 (configuration not stated)
inactive: RXF 631 > 100 µM | M19-MEL > 100 µM | DLD-1 > 100 µM | DMS-114 > 100 µM | HOP-18 > 100 µM | DMS-273 > 100 µM

O=C(c1ccco1)c1ccccc1C(=O)c1ccco1
inactive: RXF 631 > 100 µM | M19-MEL > 100 µM | DLD-1 > 100 µM | DMS-114 > 100 µM | HOP-18 61.5 µM | DMS-273 > 100 µM

Nc1ccc(-c2nc3ccccc3s2)cc1
inactive: RXF 631 19.7 µM | BT-549 14.9 µM | M19-MEL 30.8 µM | DLD-1 26.4 µM | DMS-114 17.7 µM | HOP-18 86.9 µM | Hs-578T 36.1 µM | MDA-N 19.5 µM
